Data published in PMC9698773, “Design, Synthesis, Molecular Modeling, and Anticancer Evaluation of New VEGFR-2 Inhibitors Based on the Indolin-2-One Scaffold” (Pharmaceuticals, 2022).

What was measured:
MCF-7 cell line = test: MTT cytotoxicity assay, MCF-7; assay type: cell-based, human; conditions: for IC50: Homo sapiens, MCF7, MTT assay, mean ± SD of three experiments; for fold more potent than sunitinib, MCF-7: ratio of IC50 to sunitinib
Description: (§1) The cytotoxic activities against breast MCF-7 and liver HepG2 cancer cell lines for all the synthesized compounds 3a,b–17a,b were evaluated by MTT-based cytotoxicity assay. Sunitinib was selected as a reference standard in this study, and the results are presented as IC50 in Table 1.
(§2) The anticancer activities of the target compounds 3a,b–17a,b were quantitatively assessed using the MTT protocol against the MCF-7 and HepG2 cell lines, as described in the Supplementary Materials. […]
(§3) 4.2. Biological investigation
(§4) 4.2.1. In vitro cytotoxic activity assay
(§5) Citation: Abdelgawad, M.A.; Cell Line cells were obtained from the American Type Culture Collection. The cells Hayallah A.M.; Bukhari S.N.A.; were cultured using DMEM (Invitrogen/Life Technologies) supplemented with 10% FBS Musa A.; Elmowafy M.; (Hyclone,), 10 ug/ml of insulin (Sigma), and 1% penicillin‐streptomycin. All of the other Abdel‐Rahman, H.M.; chemicals and reagents were from Sigma or Invitrogen. Plate cells (cells density 1.2 – 1.8 Abd El‐Gaber, M.K. Design, × 10,000 cells/well) in a volume of 100μl complete growth medium + 100 μl of the tested Synthesis, Molecular Modeling, and compound per well in a 96‐well plate for 24 hours before the MTT assay. The tested com‐ Anticancer Evaluation of New pounds were dissolved in DMSO just before the test.
(§6) VEGFR‐2 Inhibitors Based on the Indolin‐2‐One Scaffold. 4.2.1.1. Cell culture protocol
(§7) Pharmaceuticals 2022, 15, x. The culture medium was removed to a centrifuge tube. The cell layer was briefly https://doi.org/10.3390/xxxxx rinsed with 5 mL of 0.25% (w/v) Trypsin and 3 mL of 0.53 mM EDTA solution to remove Academic Editor(s): Mary J. Meegan all traces of serum which contains Trypsin inhibitor. Next, 2.0 to 3.0 ml of Trypsin EDTA Received: 18 October 2022 solution was added to the flask and cells were observed under an inverted microscope Accepted: 9 November 2022 until the cell layer was dispersed (usually within 5 to 15 minutes). Then, 6.0 to 8.0 mL of Published: 14 November 2022 complete growth medium was added and cells aspirated by gently pipetting. The cell suspension was transferred to the centrifuge tube with the medium and cells from step 1, Publisher’s Note: MDPI stays neu‐and centrifuged at approximately 125 xg for 5 to 10 minutes. The supernatant was dis‐ tral with regard to jurisdictional carded and the cell pellet was suspended in fresh growth medium. Appropriate aliquots claims in published maps and institu‐ of the cell suspension were added to new culture vessels and incubated at 37°C for 24 hrs. tional affiliations. After treatment of cells with the serial concentrations of the compound to be tested, incu‐ bation was carried out for 48 h at 37 °C. The plates were examined under an inverted mi‐ croscope and proceeded for the MTT assay […]
(§8) Submitted for possible open access 4.2.1.2. […]
(§9) HepG‐2) were used in this test. At first, the cell lines were cultured in RPMI‐1640 medium Pharmaceuticals 2022, 15, x. https://doi.org/10.3390/xxxxx. www.mdpi.com/journal/pharmaceuticals […]
(§10) Pharmaceuticals 2022, 15, x FOR PEER REVIEW 2 of 22 with 10% fetal bovine serum. Antibiotics (100 units/ml penicillin and100 μg/ml strepto‐ mycin) were added at 37 °C in a 5% CO2 incubator. The cell lines were seeded in a 96‐well plate at a density of 1.0 x 10^4 cells / well at 37 °C for 48 h under 5% CO2. After incubation, the cells were treated with different concentrations of the synthesized compounds and incubated for 24 h. After 24 h of drug treatment, 20 μl of MTT solution (5mg/ml) was added and incubated for 4 h. 100 μl of dimethyl sulfoxide (DMSO) was added into each well to dissolve the formed purple formazan. The colored solution was measured and recorded at an absorbance of 570 nm using a plate reader (EXL 800, USA). The relative cell viability was calculated in percentage as (A570 of treated samples/A570 of untreated sam‐ ple) X 100. The half maximal inhibitory concentration (IC50) values were presented using […]

HepG2 cell line = test: MTT cytotoxicity assay, HepG2; assay type: cell-based, human; conditions: mean ± SD of three experiments
Description: as §1, §2, §3, §4, §5, §6, §7, §8, §9, §10

VEGFR-2 = VEGFR-2 (Homo sapiens, UniProt P35968); test: In vitro VEGFR-2 kinase inhibitory assay (VEGFR2 (KDR) Kinase Assay Kit)
Sequence of VEGFR-2 (P35968 20-1356): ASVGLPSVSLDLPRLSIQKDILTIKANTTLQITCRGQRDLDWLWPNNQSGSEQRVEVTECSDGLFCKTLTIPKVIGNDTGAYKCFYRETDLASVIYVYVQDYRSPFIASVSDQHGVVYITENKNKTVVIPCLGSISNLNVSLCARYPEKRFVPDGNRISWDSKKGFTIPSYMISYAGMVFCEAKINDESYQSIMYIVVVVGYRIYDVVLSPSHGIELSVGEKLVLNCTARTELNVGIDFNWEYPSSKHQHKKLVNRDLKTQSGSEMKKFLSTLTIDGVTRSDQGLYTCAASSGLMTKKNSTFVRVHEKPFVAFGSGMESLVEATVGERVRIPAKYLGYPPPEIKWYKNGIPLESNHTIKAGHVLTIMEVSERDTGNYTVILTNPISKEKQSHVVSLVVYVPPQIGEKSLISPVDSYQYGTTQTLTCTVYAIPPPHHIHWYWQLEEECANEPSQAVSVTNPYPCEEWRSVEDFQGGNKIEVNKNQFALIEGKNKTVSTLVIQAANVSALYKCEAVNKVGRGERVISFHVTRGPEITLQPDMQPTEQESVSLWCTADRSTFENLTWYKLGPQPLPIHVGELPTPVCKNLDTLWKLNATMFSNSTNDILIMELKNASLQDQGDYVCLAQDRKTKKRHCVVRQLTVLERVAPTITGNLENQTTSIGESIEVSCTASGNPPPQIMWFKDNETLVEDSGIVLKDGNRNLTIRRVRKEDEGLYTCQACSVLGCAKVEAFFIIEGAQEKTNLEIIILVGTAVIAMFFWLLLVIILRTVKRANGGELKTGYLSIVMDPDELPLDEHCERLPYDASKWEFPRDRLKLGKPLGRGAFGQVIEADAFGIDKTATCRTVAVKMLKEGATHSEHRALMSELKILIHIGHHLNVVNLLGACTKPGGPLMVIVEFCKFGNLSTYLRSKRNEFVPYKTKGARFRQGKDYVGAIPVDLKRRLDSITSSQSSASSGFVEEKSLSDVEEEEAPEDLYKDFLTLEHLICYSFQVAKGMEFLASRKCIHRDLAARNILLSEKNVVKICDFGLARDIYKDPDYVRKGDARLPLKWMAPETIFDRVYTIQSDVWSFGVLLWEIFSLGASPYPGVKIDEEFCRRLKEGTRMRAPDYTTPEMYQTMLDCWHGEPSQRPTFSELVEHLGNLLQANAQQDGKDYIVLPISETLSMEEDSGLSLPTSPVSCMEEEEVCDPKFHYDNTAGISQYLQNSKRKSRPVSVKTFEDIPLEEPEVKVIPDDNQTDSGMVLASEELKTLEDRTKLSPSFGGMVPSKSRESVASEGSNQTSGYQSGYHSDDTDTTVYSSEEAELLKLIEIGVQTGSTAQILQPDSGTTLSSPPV
Description: In vitro VEGFR‐2 kinase inhibitory assay
for their inhibitory activity against VEGFR‐2. Human BPS bioscience® VEGFR2 (KDR) Ki‐ nase Assay Kit (Enzyme‐Linked Immunosorbent Assay) was utilized in this test. The lu‐ minescent signal from the assay is correlated with the amount of ATP present and is in‐ versely correlated with the amount of kinase activity. The compounds were diluted to 100 μM in 10% DMSO and 5 ml of the diluted solution was added to a 50 ml reaction so that the final concentration of DMSO was 1% in all of reactions. All of the enzymatic reactions were conducted at 30 °C for 40 min. The 50 μl reaction mixture contains 40 μM Tris, pH 7.4, 10 μM MgCl2, 0.1 mg/ml BSA, 0.2 mg/ml Poly (Glu, Tyr) substrate, 10 μM ATP, and VEGFR‐2. After the enzymatic reaction, 50 ml of Kinase‐GloPlus Luminescence kinase as‐ say solution (Promega) was added to each reaction and the plate was incubated for 5 min at room temperature. Luminescence signal was measured using a BioTek Synergy 2 mi‐ croplate reader. The protein kinase assays used to determine IC50 values were performed using a ADP‐GloTM assay kit from Promega, which measures the generation of ADP by the protein kinase. Generation of ADP by the protein kinase reaction leads to an increase in luminescence signal in the presence of the ADP‐GloTM assay kit. The assay was started by incubating the reaction mixture in a 96‐well plate at 30 °C for 30 min. After the 30 mi n incubation period, the assay was terminated by the addition of 25 ml of ADP‐GloTM Re‐ agent (Promega). The 96‐well plate was shaken and then incubated for 40 min at ambient temperature; 50 ml of Kinase detection reagent was added, the 96‐well reaction plate wa s then read using the ADP‐Glo Luminescences Protocol on a GloMax plate reader (Promega: Catalog #E7031). The blank control was set up which included all the assay components, except the addition of appropriate substrates (replaced with equal volume of kinase assay buffer). The corrected activity for each protein kinase target was deter‐ mined by removing the blank control value. IC50 determination for inhibitor against VEGFR‐2 was estimated by generating a graph of log inhibitor vs normalized response with variables.

Row | SMILES | IC50 (MCF-7 cell line) [µM] | IC50 (HepG2 cell line; Homo sapiens, HepG2, MTT assay) [µM] | melting point [°C] | fold more potent than sunitinib, MCF-7 (MCF-7 cell line) [fold] | IC50 (VEGFR-2) [nM] | fold more potent than sunitinib, VEGFR-2 inhibition (VEGFR-2; ratio of IC50 to sunitinib) [fold] | IC50 (HepG2 cell line; MTT assay) [µM]
1 | O=C1Nc2ccccc2/C1=N/c1ccc(C(=O)O)cc1 [Compound 3a] | 51.6 ± 2.5 | 62.4 ± 2.61 | – | – | – | – | –
2 | O=C1Nc2ccc(F)cc2/C1=N/c1ccc(C(=O)O)cc1 [Compound 3b] | 43.9 ± 2.1 | 51.2 ± 2.5 | – | – | – | – | –
3 | CNC(=S)NNC(=O)c1ccc(N=C2C(=O)Nc3ccccc32)cc1 [Compound 5a, N-Methyl-2-(4-((2-oxoindolin-3-ylidene)amino)benzoyl)hydrazinecarbothioamide] | 6.42 ± 0.55 | 5.48 ± 0.27 | 249 to 251 | – | – | – | –
4 | CNC(=S)NNC(=O)c1ccc(N=C2C(=O)Nc3ccc(F)cc32)cc1 [Compound 5b, 2-(4-((5-Fluoro-2-oxoindolin-3-ylidene)amino)benzoyl)-N-methylhydrazinecarbothioamide] | 0.99 ± 0.04 | 2.62 ± 0.13 | 252 to 254 | 5 | 160 ± 8 | – | –
5 | CCOC(=O)c1ccc(/N=C2\C(=O)Nc3ccccc32)cc1 [Compound 7a] | 14.9 ± 0.7 | 10.9 ± 0.53 | – | – | – | – | –
6 | CCOC(=O)c1ccc(/N=C2\C(=O)Nc3ccc(F)cc32)cc1 [Compound 7b] | 3.81 ± 0.2 | 2.23 ± 0.11 | – | – | – | – | –
7 | NNC(=O)c1ccc(/N=C2\C(=O)Nc3ccccc32)cc1 [Compound 8a] | 27.2 ± 1.3 | 24.9 ± 1.21 | – | – | – | – | –
8 | NNC(=O)c1ccc(/N=C2\C(=O)Nc3ccc(F)cc32)cc1 [Compound 8b] | 40.7 ± 2.8 | 53.9 ± 2.63 | – | – | – | – | –
9 | O=C1Nc2ccccc2C1=Nc1ccc(C(=O)NN=Cc2ccc([N+](=O)[O-])cc2)cc1 [Compound 10a, N′-(4-Nitrobenzylidene)-4-((2-oxoindolin-3-ylidene)amino)benzohydrazide] | 40 ± 2 | 8.24 ± 0.4 | 220 to 222 | – | – | – | –
10 | O=C1Nc2ccccc2C1=Nc1ccc(C(=O)NN=Cc2ccc(Cl)cc2)cc1 [Compound 10b, N′-(4-Chlorobenzylidene)-4-((2-oxoindolin-3-ylidene)amino)benzohydrazide] | 23.8 ± 1.21 | 33.8 ± 1.65 | 237 to 239 | – | – | – | –
11 | O=C1Nc2ccccc2C1=Nc1ccc(C(=O)NN=Cc2cccc([N+](=O)[O-])c2)cc1 [Compound 10c, N′-(3-Nitrobenzylidene)-4-((2-oxoindolin-3-ylidene)amino)benzohydrazide] | 14.6 ± 0.71 | 21 ± 1.02 | 200 to 201 | – | – | – | –
12 | Cc1ccc(C=NNC(=O)c2ccc(N=C3C(=O)Nc4ccccc43)cc2)cc1 [Compound 10d, N′-(4-Methylbenzylidene)-4-((2-oxoindolin-3-ylidene)amino)benzohydrazide] | 13.7 ± 0.4 | 21.4 ± 1.05 | 234 to 236 | – | – | – | –
13 | COc1ccc(C=NNC(=O)c2ccc(N=C3C(=O)Nc4ccccc43)cc2)cc1 [Compound 10e, N′-(4-Methoxybenzylidene)-4-((2-oxoindolin-3-ylidene)amino)benzohydrazide] | 4.62 ± 0.2 | 8.81 ± 0.43 | 239 to 240 | – | 358 ± 19 | – | –
14 | CN(C)c1ccc(C=NNC(=O)c2ccc(N=C3C(=O)Nc4ccc(F)cc43)cc2)cc1 [Compound 10f, N′-(4-(Dimethylamino)benzylidene)-4-((5-fluoro-2-oxoindolin-3-ylidene)amino)benzohydrazide] | 11 ± 0.59 | 19.2 ± 0.94 | 202 to 204 | – | – | – | –
15 | O=C1Nc2ccc(F)cc2C1=Nc1ccc(C(=O)NN=Cc2ccc(Br)cc2)cc1 [Compound 10g, N′-(4-Bromobenzylidene)-4-((5-fluoro-2-oxoindolin-3-ylidene)amino)benzohydrazide] | 0.74 ± 0.03 | 2.79 ± 0.14 | 227 to 229 | 6 | 87 ± 4 | 1.6 | –
16 | O=C1Nc2ccccc2C1=Nc1ccc(C(=O)NN2C(=O)c3ccccc3C2=O)cc1 [Compound 12a, N-(1,3-Dioxoisoindolin-2-yl)-4-((2-oxoindolin-3-ylidene)amino)benzamide] | 78.4 ± 3.81 | 130 ± 6.37 | 187 to 189 | – | – | – | –
17 | O=C1Nc2ccc(F)cc2C1=Nc1ccc(C(=O)NN2C(=O)c3ccccc3C2=O)cc1 [Compound 12b, N-(1,3-Dioxoisoindolin-2-yl)-4-((5-fluoro-2-oxoindolin-3-ylidene)amino)benzamide] | 33.8 ± 1.7 | 23.5 ± 1.15 | 225 to 227 | – | – | – | –
18 | CCOC(=O)CC(C)=NNC(=O)c1ccc(N=C2C(=O)Nc3ccccc32)cc1 [Compound 14a, Ethyl 3-(2-(4-((2-oxoindolin-3-ylidene)amino)benzoyl)hydrazono)butanoate] | 7.37 ± 0.4 | 10.3 ± 0.81 | 206 to 208 | – | – | – | –
19 | CCOC(=O)CC(C)=NNC(=O)c1ccc(N=C2C(=O)Nc3ccc(F)cc32)cc1 [Compound 14b, Ethyl 3-(2-(4-((5-Fluoro-2-oxoindolin-3-ylidene)amino)benzoyl)hydrazono)butanoate] | 32.9 ± 1.61 | 13.8 ± 0.67 | 213 to 215 | – | – | – | –
20 | O=C1Nc2ccccc2C1=Nc1ccc(-c2n[nH]c(=S)o2)cc1 [Compound 15a, 3-((4-(5-Thioxo-4,5-dihydro-1,3,4-oxadiazol-2-yl)phenyl)imino)indolin-2-one] | 2.77 ± 0.1 | 2.3 ± 0.18 | 219 to 220 | – | 180 ± 9 | – | 2.3 ± 0.18
21 | O=C1Nc2ccc(F)cc2C1=Nc1ccc(-c2n[nH]c(=S)o2)cc1 [Compound 15b, 5-Fluoro-3-((4-(5-thioxo-4,5-dihydro-1,3,4-oxadiazol-2-yl)phenyl)imino)indolin-2-one] | 19.6 ± 1.8 | 12.7 ± 0.62 | 231 to 233 | – | – | – | –
22 | O=C1Nc2ccc(F)cc2C1=Nc1ccc(C(=O)NNC(=S)Nc2ccccc2)cc1 [Compound 17b, 2-(4-((5-Fluoro-2-oxoindolin-3-ylidene)amino)benzoyl)-N-phenylhydrazinecarbothioamide] | 25.8 ± 1.3 | 9.81 ± 0.48 | 203 to 205 | – | – | – | –
23 | CCN(CC)CCNC(=O)c1c(C)[nH]c(/C=C2\C(=O)Nc3ccc(F)cc32)c1C [Sunitinib, reference compound] | 4.77 ± 0.29 | 2.23 ± 0.11 | – | – | – | – | –
